Experimental findings from PMC12263422, “Cryo-EM structure of the human THIK-1 K2P K^+ channel reveals a lower Y gate regulated by lipids and anesthetics” (Nature Structural & Molecular Biology, 2025) are described below.

“And” between values parts separate entries of the source, which are not always exact repeats. Identical values can stand only once.

The test addresses T1, Human K2P13.1 THIK-1 (WT) (Homo sapiens, UniProt Q9HB14).
T1 construct: expressed in transfected cells; host or cells: Xenopus oocytes (mRNA injection)
T1 sequence (Q9HB14 1-408): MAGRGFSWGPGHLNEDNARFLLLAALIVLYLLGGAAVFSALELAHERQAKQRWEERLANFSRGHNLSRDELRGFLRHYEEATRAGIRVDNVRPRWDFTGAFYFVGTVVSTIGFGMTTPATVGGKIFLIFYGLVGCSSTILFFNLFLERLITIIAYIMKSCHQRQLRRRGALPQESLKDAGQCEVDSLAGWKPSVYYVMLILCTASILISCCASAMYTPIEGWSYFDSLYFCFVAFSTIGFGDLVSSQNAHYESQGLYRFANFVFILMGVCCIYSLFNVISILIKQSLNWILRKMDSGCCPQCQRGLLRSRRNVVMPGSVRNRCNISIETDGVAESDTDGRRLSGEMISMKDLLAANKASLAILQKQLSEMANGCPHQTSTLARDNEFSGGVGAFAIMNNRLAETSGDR
Description: Macroscopic inside-out excised patch recordings from Xenopus oocytes expressing WT THIK-1; compounds applied to the intracellular side. Format: cell-based. To be noted: for Inhibition (%): individual recordings. An excerpt: Human K2P13.1 THIK-1 (GenBank accession number: NM_022054) and human K2P12.1 THIK-2 (NM_022055.1) were used in this study. For functional expression studies, the respective K^+ channel subtype coding sequences were subcloned into the oocyte expression vector pSGEM or the dual-purpose expression vector pFAW[41] and verified by sequencing. All mutant channels were obtained by site-directed mutagenesis and verified by sequencing. To increase surface expression and macroscopic currents, measurements of THIK-2 channels used a mutated ER retention motif, (R11A R12A R14A R15A R16A; THIK-2*)[20]. Vector DNA was linearized with NheI or MluI, and mRNA was synthesized in vitro using the SP6 or T7 AmpliCap Max High Yield Message Maker Kit (Cellscript, USA) or HiScribe T7 ARCA mRNA Kit (New England Biolabs).
Two-electrode voltage–clamp (TEVC) studies were performed in Xenopus oocytes. All animal use conformed to the Guide for the Care and Use of Laboratory Animals (NIH Publication 85–23), and all experiments using Xenopus toads were approved by the local ethics panels. Oocytes were stored at 17 °C in ND96 recording solution composed of (in mM): 96 NaCl, 2 KCl, 1.8 CaCl2, 1 MgCl2, 5 HEPES (pH 7.5 adjusted with NaOH and HCl), supplemented with Na-pyruvate (275 mg L^–1), theophylline (90 mg L^–1) and gentamicin (50 mg L^–1). Oocytes were injected with 1 ng mRNA for WT or mutant channels, and were incubated for 24–48 h at 17 °C. Two-electrode voltage clamp recordings were then performed as previously described[42],[43]. For macroscopic patch–clamp measurements, oocytes were obtained as described above incubated at 17 °C in a solution containing (mM): 54 NaCl, 30 KCl, 2.4 NaHCO3, 0.82 MgSO4 ×7 H2O, 0.41 CaCl2, 0.33 Ca(NO3)2 ×4 H2O and 7.5 TRIS (pH 7.4 adjusted with NaOH and HCl) for 1–4 days before use. Excised patch recordings in inside-out configuration conditions were performed at room temperature. Patch pipettes were made from thick-walled borosilicate glass GB 200TF-8P (Science Products), had resistances of 0.2–0.5 MΩ (tip diameter, 10–25 µm) and filled with a pipette solution (in mM): 120 KCl, 10 HEPES and 3.6 CaCl2 (pH 7.4 adjusted with KOH and HCl). Intracellular bath solutions and compounds were applied to the cytoplasmic side of excised patches for the various K^+ channels through a gravity flow multi-barrel pipette system. The intracellular solution had the following composition (in mM): 120 KCl, 10 HEPES, 2 EGTA and 1 pyrophosphate (pH adjusted with KOH and HCl). Currents were recorded with an EPC10 amplifier (HEKA Electronics) and sampled at 10 kHz or higher, with filtering set to 3 kHz (–3 dB) or higher, as appropriate for sampling rate. For measurements of GPCR activation, whole-cell currents were recorded for THIK-1 in transiently transfected HEK-293 cells. Cells were stimulated by a ramp protocol between −100 and +60 mV (holding potential, −80 mV). The pipette solution was composed of (in mM): 140 KCl, 2 MgCl2, 1 CaCl2, 2.5 EGTA and 10 HEPES (pH 7.3 adjusted with KOH and HCl). The extracellular bath solution had the following composition (in mM): 135 NaCl, 5 KCl, 2 MgCl2, 2 CaCl2, 10 glucose and 10 HEPES pH (pH 7.3 adjusted with NaOH and HCl). Oxotremorine M (Oxo-M) was added to extracellular bath solution to obtain the final concentration. Single-channel currents were recorded with an Axopatch 200B amplifier through a Digidata 1440A digitizer (Molecular Devices). Data were filtered at 2 kHz and recorded at a 200-kHz sampling rate with the program Clampex (Molecular Devices). Pipette solution and bath solution for cell-attached recordings contained (in mM): 140 KCl, 2 MgCl2, 1 CaCl2 and 10 HEPES (pH 7.4 adjusted with KOH and HCl). For inside-out recordings, the bath solution contained (in mM): 140 KCl, 2 MgCl2, 1 CaCl2 and 10 HEPES (pH 7.2 adjusted with KOH and HCl). All experiments were conducted at room temperature. […]

The term inhibition denotes the percentage by which the read-out fell short of the control. Higher therefore signals a strong effect. What is called Inhibition is the percentage by which the read-out fell short of the control. Regarding `FC(F)OC(Cl)C(F)(F)F` (stereo not shown) [Isoflurane, isoflurane], for the setting “4.9 mM Isoflurane, WT”, the “Inhibition (%)” value was 88.353% and 81.703% and 79.557% and 81.992% and 78.205% and 79.070% and 68.116% and 80.054% and 86.809% and 87.556%. Moreover, the inhibition at 242 µM runs as follows: (THIK-1 WT (oleoyl-CoA), 0.242 mM isoflurane) 10.6%; (isoflurane 0.242 mM, THIK-1 WT) 33.6%. Besides, the inhibition at 485 µM stood at 21% (THIK-1 WT (oleoyl-CoA), 0.485 mM isoflurane) and 50.2% (isoflurane 0.485 mM, THIK-1 WT). The inhibition at 2420 µM stood at 33.6% (THIK-1 WT (oleoyl-CoA), 2.42 mM isoflurane) and 65.3% (isoflurane 2.42 mM, THIK-1 WT). Further, the inhibition at 4850 µM runs as follows: (THIK-1 WT (oleoyl-CoA), 4.85 mM isoflurane) 60.9%; (isoflurane 4.85 mM, THIK-1 WT) 81.1%. Also, the inhibition at 24200 µM is, setting by setting: (THIK-1 WT (oleoyl-CoA), 24.2 mM isoflurane) 79.7%; (isoflurane 24.2 mM, THIK-1 WT) 89.5%. Besides, the Inhibition (THIK-1 WT (oleoyl-CoA), isoflurane concentration printed as "v" (mM)) was determined as 4.36%. The compound also yielded an inhibition at 48 µM (isoflurane 0.048 mM, THIK-1 WT) of 20.4%.
`FCOC(C(F)(F)F)C(F)(F)F` [Sevoflurane, sevoflurane]: under “0.24 mM Sevoflurane, WT”, the “Inhibition (%)” value was 52.54% and 40.05% and 49.45% and 28.56% and 58.12% and 60.68% and 50.30%. In addition, under “0.24 mM Sevoflurane, WT, mean”, the inhibition at 240 µM was 48.5%. Moreover, 23 µM produced 14.1% inhibition (THIK-1 WT, 0.023 mM sevoflurane). Under “THIK-1 WT, 0.047 mM sevoflurane”, the inhibition at 47 µM is 21.7%. For the setting “THIK-1 WT, 0.468 mM sevoflurane”, this compound had an inhibition at 468 µM of 57.5%. The compound further returned an inhibition at 2340 µM (THIK-1 WT, 2.34 mM sevoflurane) of 79.5%.
